The values that follow come from ChEMBL document CHEMBL4819062, “Novel iodinated quinazolinones bearing sulfonamide as new scaffold targeting radiation induced oxidative stress” (Bioorg Med Chem Lett, 2021).

SMILES strings stand for the structures.

Assay [1] deals with T1, Nuclear factor erythroid 2-related factor 2 (Mus musculus) (UniProt Q60795).
T1 sequence (whole entry): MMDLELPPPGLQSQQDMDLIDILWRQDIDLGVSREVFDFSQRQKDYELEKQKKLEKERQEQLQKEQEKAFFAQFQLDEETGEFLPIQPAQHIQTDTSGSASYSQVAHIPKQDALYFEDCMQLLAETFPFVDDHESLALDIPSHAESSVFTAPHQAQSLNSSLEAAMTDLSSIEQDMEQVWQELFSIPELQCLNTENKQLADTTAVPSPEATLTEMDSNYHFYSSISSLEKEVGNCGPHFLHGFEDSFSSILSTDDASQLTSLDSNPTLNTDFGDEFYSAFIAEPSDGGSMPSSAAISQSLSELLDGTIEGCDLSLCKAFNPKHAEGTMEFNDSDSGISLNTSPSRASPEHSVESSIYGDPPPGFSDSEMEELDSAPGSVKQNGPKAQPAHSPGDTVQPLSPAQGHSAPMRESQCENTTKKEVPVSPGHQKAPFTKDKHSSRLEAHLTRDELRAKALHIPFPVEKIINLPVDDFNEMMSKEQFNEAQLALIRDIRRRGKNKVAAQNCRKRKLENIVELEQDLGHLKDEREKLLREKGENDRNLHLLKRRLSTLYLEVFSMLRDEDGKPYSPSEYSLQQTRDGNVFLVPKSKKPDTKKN
Put plainly: Activation of Nrf2 in mouse Hepa1c1c7 cells assessed as increase in NQO1 activity at 0.9 uM. It counts as cell-based. As to conditions: filed as activator.

Assay [2] has as its target T1, Nuclear factor erythroid 2-related factor 2 (Mus musculus). The assay is described as follows: Activation of Nrf2 in mouse Hepa1c1c7 cells assessed as increase in NQO1 activity at 3.75 uM. In kind it is cell-based. As to conditions: filed as activator.
The target is the same in assay [3]. The assay is described as follows: Activation of Nrf2 in mouse Hepa1c1c7 cells assessed as increase in NQO1 activity at 0.2 uM. In kind it is cell-based. As to conditions: filed as activator.
The target is the same in assay [4]. The assay is described as follows: Activation of Nrf2 in mouse Hepa1c1c7 cells assessed as increase in NQO1 activity at 30 uM. It counts as cell-based. The note with it: filed as activator.
Assay [5] shares this target. The assay is described as follows: Activation of Nrf2 in mouse Hepa1c1c7 cells assessed as increase in NQO1 activity at 0.5 uM. In kind it is cell-based. As to conditions: filed as activator.
For assay [6] the target is unchanged. The assay is described as follows: Activation of Nrf2 in mouse Hepa1c1c7 cells assessed as increase in NQO1 activity at 15 uM. The note with it: filed as activator. In kind it is cell-based.
Assay [7] is described as follows: Antioxidant activity assessed as DPPH radical scavenging activity. In kind it is functional. Background: DPPH is a stable violet radical that fades when it is reduced.
Assay [8] addresses T1, Nuclear factor erythroid 2-related factor 2 (Mus musculus). Put plainly: Activation of Nrf2 in mouse Hepa1c1c7 cells assessed as increase in NQO1 activity at 1.9 uM. It counts as cell-based. The note with it: filed as activator.
Assay [9] shares this target. The assay is described as follows: Activation of Nrf2 in mouse Hepa1c1c7 cells assessed as increase in NQO1 activity at 7.5 uM. In kind it is cell-based. As to conditions: filed as activator.
Assay [10] shares this target. Put plainly: Activation of Nrf2 in mouse Hepa1c1c7 cells assessed as increase in NQO1 activity at 12.5 uM. In kind it is cell-based. The note with it: filed as activator.
Assay [11] shares this target. The assay is described as follows: Activation of Nrf2 in mouse Hepa1c1c7 cells assessed as increase in NQO1 activity at 25 uM. The note with it: filed as activator. It counts as cell-based.
The target is the same in assay [12]. Put plainly: Activation of Nrf2 in mouse Hepa1c1c7 cells assessed as increase in NQO1 activity at 0.8 uM. It counts as cell-based. The note with it: filed as activator.
The target is the same in assay [13]. The assay is described as follows: Activation of Nrf2 in mouse Hepa1c1c7 cells assessed as increase in NQO1 activity at 0.4 uM. It counts as cell-based. The note with it: filed as activator.
Assay [14] shares this target. Put plainly: Activation of Nrf2 in mouse Hepa1c1c7 cells assessed as increase in NQO1 activity at 6.25 uM. In kind it is cell-based. As to conditions: filed as activator.
For assay [15] the target is unchanged. The assay is described as follows: Activation of Nrf2 in mouse Hepa1c1c7 cells assessed as increase in NQO1 activity at 1.6 uM. In kind it is cell-based. As to conditions: filed as activator.
For assay [16] the target is unchanged. The assay is described as follows: Activation of Nrf2 in mouse Hepa1c1c7 cells assessed as increase in NQO1 activity at 3.125 uM. In kind it is cell-based. As to conditions: filed as activator.
For assay [17] the target is unchanged. The assay is described as follows: Activation of Nrf2 in mouse Hepa1c1c7 cells assessed as increase in NQO1 activity at 50 uM. In kind it is cell-based. The note with it: filed as activator.
Assay [18] has the same target. The assay is described as follows: Activation of Nrf2 in mouse Hepa1c1c7 cells assessed as increase in NQO1 activity at 10 uM. As to conditions: filed as activator. In kind it is cell-based.
Assay [19] shares this target. The assay is described as follows: Activation of Nrf2 in mouse Hepa1c1c7 cells assessed as increase in NQO1 activity at 5 uM. It counts as cell-based. As to conditions: filed as activator.
Assay [20] shares this target. Put plainly: Activation of Nrf2 in mouse Hepa1c1c7 cells assessed as increase in NQO1 activity at 0.313 uM. In kind it is cell-based. As to conditions: filed as activator.
Assay [21] has the same target. The assay is described as follows: Activation of Nrf2 in mouse Hepa1c1c7 cells assessed as increase in NQO1 activity at 40 uM. In kind it is cell-based. As to conditions: filed as activator.
For assay [22] the target is unchanged. Put plainly: Activation of Nrf2 in mouse Hepa1c1c7 cells assessed as concentration required to double induction to increase in NQO1 activity. In kind it is cell-based. As to conditions: filed as activator.
Assay [23] has the same target. The assay is described as follows: Activation of Nrf2 in mouse Hepa1c1c7 cells assessed as increase in NQO1 activity at 2.5 uM. In kind it is cell-based. The note with it: filed as activator.
For assay [24] the target is unchanged. Put plainly: Activation of Nrf2 in mouse Hepa1c1c7 cells assessed as increase in NQO1 activity at 20 uM. In kind it is cell-based. As to conditions: filed as activator.
Assay [25] has the same target. The assay is described as follows: Activation of Nrf2 in mouse Hepa1c1c7 cells assessed as increase in NQO1 activity at 0.625 uM. As to conditions: filed as activator. It counts as cell-based.
Assay [26] shares this target. The assay is described as follows: Activation of Nrf2 in mouse Hepa1c1c7 cells assessed as increase in NQO1 activity at 1.25 uM. It counts as cell-based. The note with it: filed as activator.

With `NS(=O)(=O)c1ccc(-n2c(SCC(=O)Nc3cccc(F)c3)nc3c(I)cc(I)cc3c2=O)cc1`, the Activity stood at 1.07 in [1]; 1.1 in [2]; 1.01 in [3]; 1.47 in assay [4]; 1.04 in [5]; 1.31 in assay [6]. Also, the values for the Activity in assay [8] and in assay [9] were 1.06 and 1.21, respectively. Also, in assay [7], the IC50 stood at 59.4 µM.

With `NS(=O)(=O)c1ccc(-n2c(SCC(=O)Nc3ccncc3)nc3c(I)cc(I)cc3c2=O)cc1`, the Activity in assay [10] is 1.31; in assay [11] it was 1.65; in [12] it was 1; in assay [13] it was 1.04; in assay [14], 1.15; in [15], 1.02. The Activity was 1.06 in assay [16] and 1.89 in assay [17]. The IC50 in assay [7] is 112 µM.

For the molecule `NS(=O)(=O)c1ccc(-n2c(SCC(=O)Nc3ccccc3F)nc3c(I)cc(I)cc3c2=O)cc1`, the Activity in assay [1] was found to be 1.11; in assay [2], 1.13; in [3] it was 1.05; in assay [5], 1.06; in [6] it was 1.8; in assay [8], 1.12. The Activity in assay [9] was determined as 1.23. The IC50 in assay [7] was 98.9 µM.

`NS(=O)(=O)c1ccc(-n2c(SCC(=O)Nc3cccnc3)nc3c(I)cc(I)cc3c2=O)cc1`: the Activity turned out to be 1 in [1]; 1.03 in assay [2]; 1 in assay [3]; 1.35 in assay [4]; 0.99 in assay [5]; 1.19 in assay [6]. The Activity turned out to be 0.99 in [8] and 1.07 in assay [9]. Further, the IC50 in [7] was 165 µM.

With `NS(=O)(=O)c1ccc(-n2c(SCC(=O)Nc3ccc(Br)cc3)nc3c(I)cc(I)cc3c2=O)cc1`, the Activity is 1.15 in assay [18]; 1.02 in assay [19]; 1.02 in [20]; 1.93 in [21]; “Dose-Dependent Effect” in [22]; 0.94 in assay [23]. For the same molecule, the results for the Activity in assay [24], in assay [25] and in assay [26] were 1.42, 1.01 and 0.99, respectively. Further, in [22], the CD amounted to 40 µM. The IC50 in [7] was found to be 49.3 µM.

`O=C1O[C@H]([C@@H](O)CO)C(O)=C1O` [ASCORBIC ACID]: in assay [7], the IC50 amounted to 128 µM.

In the case of `NS(=O)(=O)c1ccc(-n2c(SCC(=O)Nc3ccc(Cl)cn3)nc3c(I)cc(I)cc3c2=O)cc1`, the Activity in [10] came out at 1.7; in assay [12], 0.99; in assay [13], 0.94; in assay [14] it was 1.5; in [15], 0.98; in assay [16], 1.09. For the same molecule, in assay [7], the IC50 came to 30.5 µM.

Take `NS(=O)(=O)c1ccc(-n2c(S)nc3c(I)cc(I)cc3c2=O)cc1`: in assay [7], the IC50 amounted to 57.1 µM.

As to `NS(=O)(=O)c1ccc(-n2c(SCC(=O)Nc3ccc(I)cc3)nc3c(I)cc(I)cc3c2=O)cc1`, the Activity in [18] is 1.04; in assay [19] it was 1.05; in assay [20] it was 1.02; in assay [21] it was 1.12; in assay [23], 1.04; in assay [24], 1.07. Also, the Activity in assay [25] was determined as 1.02; in [26] it was 1.03. In addition, the IC50 in assay [7] stood at 55.6 µM.

For the molecule `NS(=O)(=O)c1ccc(-n2c(SCC(=O)Nc3ccc(F)cc3)nc3c(I)cc(I)cc3c2=O)cc1`, the Activity is 1.06 in [10]; 1.13 in assay [11]; 1 in assay [12]; 0.98 in assay [13]; 1 in assay [14]; 0.99 in assay [15]. Besides, the Activity in assay [16] stood at 0.99; in assay [17], 1.19. Besides, the IC50 in [7] is 158 µM.

With `NS(=O)(=O)c1ccc(-n2c(SCC(=O)Nc3ccc(Cl)cc3)nc3c(I)cc(I)cc3c2=O)cc1`, the Activity in assay [18] amounted to 1.26; in assay [19], 1.19; in assay [20], 1.06; in assay [21], 1.26; in assay [23] it was 1.04; in [24] it was 1.26. Also, the figures for the Activity in assay [25] and in [26] were 1.04 and 1.03, respectively. Also, the IC50 in assay [7] was 56.5 µM.

For `NS(=O)(=O)c1ccc(-n2c(SCC(=O)Nc3ccccn3)nc3c(I)cc(I)cc3c2=O)cc1`, the Activity in assay [19] came out at 0.51; in assay [20], 0.96; in assay [23], 0.76; in [25], 0.94; in [26], 0.83. The IC50 in [7] was 85 µM.

As to `NS(=O)(=O)c1ccc(-n2c(SCC(=O)Nc3ccc(Br)cc3Br)nc3c(I)cc(I)cc3c2=O)cc1`, the Activity in assay [1] is 1; in [2], 1.09; in [3], 1.01; in assay [4], 1.17; in [5] it was 1; in [6] it was 1.13. Further, the Activity turned out to be 1.02 in assay [8] and 1.08 in assay [9]. In assay [7], the IC50 stood at 37.8 µM.

For the molecule `NS(=O)(=O)c1ccc(-n2c(SCC(=O)Nc3c(Cl)cc(Cl)cc3Cl)nc3c(I)cc(I)cc3c2=O)cc1`, the Activity in assay [1] was determined as 1.06; in assay [2] it was 1.02; in [3] it was 1; in assay [4], 1.02; in assay [5], 1.02; in assay [6], 1. Moreover, the Activity in assay [8] is 1.04; in assay [9], 1. Besides, the IC50 in assay [7] worked out at 161 µM.

As for `NS(=O)(=O)c1ccc(-n2c(SCC(=O)Nc3cc(Cl)c(Cl)cc3Cl)nc3c(I)cc(I)cc3c2=O)cc1`, the Activity came to 1.1 in assay [18]; 1.08 in [19]; 1.01 in assay [20]; 1.3 in assay [21]; 1.07 in assay [23]; 1.25 in assay [24]. Besides, the Activity was found to be 1.03 in assay [25] and 1.05 in assay [26]. The IC50 in assay [7] worked out at 59.8 µM.

The IC50 is the midpoint of a concentration-inhibition curve.
